Data reported in ChEMBL document CHEMBL1201862, “PubChem BioAssay data set” (2004).
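Cultured in 96-well plates, cells were exposed to test compound for 48 hours across five concentrations. The concentration for 50% growth inhibition is given as GI50.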 Active and inactive are the calls of the source. No stated cut-off is given here; in the data, active = GI50 up to about 1.1 µM and inactive = higher.

How the values were obtained:
Assay in all cases: inhibition of tumour cell growth, NCI panel, 48 h
SK-OV-3 = test system: SK-OV-3
HCC 2998 = test system: HCC 2998
NCI-H460 = test system: NCI-H460
K562 = test system: K562
UO-31 = test system: UO-31
786-0 = test system: 786-0
RPMI-8226 = test system: RPMI-8226
SF-268 = test system: SF-268
M14 = test system: M14
NCI-H226 = test system: NCI-H226
OVCAR-3 = test system: OVCAR-3
Malme-3M = test system: Malme-3M
LOX IMVI = test system: LOX IMVI
RXF 393 = test system: RXF 393
A498 = test system: A498
HOP-92 = test system: HOP-92
OVCAR-8 = test system: OVCAR-8
T47D = test system: T47D
NCI-H23 = test system: NCI-H23
NCI/ADR-RES = test system: NCI/ADR-RES
OVCAR-5 = test system: OVCAR-5
SF-539 = test system: SF-539
HCT-116 = test system: HCT-116
HL-60 = test system: HL-60
SK-MEL-2 = test system: SK-MEL-2
CAKI-1 = test system: CAKI-1
HOP-62 = test system: HOP-62
SW-620 = test system: SW-620
HCT-15 = test system: HCT-15
CCRF-CEM = test system: CCRF-CEM
SR = test system: SR
A549 = test system: A549
SF-295 = test system: SF-295
SK-MEL-28 = test system: SK-MEL-28
COLO 205 = test system: COLO 205
TK-10 = test system: TK-10
MCF7 = test system: MCF7
MOLT-4 = test system: MOLT-4
SNB-75 = test system: SNB-75
ACHN = test system: ACHN
U-251 = test system: U-251
PC-3 = test system: PC-3
SNB-19 = test system: SNB-19
SK-MEL-5 = test system: SK-MEL-5
SN12C = test system: SN12C
IGROV-1 = test system: IGROV-1
KM12 = test system: KM12
MDA-N = test system: MDA-N
DU-145 = test system: DU-145

C/C(=N\NC(=O)c1ccncc1)c1cccc(F)c1
GI50 (SK-OV-3): > 10 µM (inactive) | GI50 (HCC 2998): > 10 µM (inactive) | GI50 (NCI-H460): > 10 µM (inactive) | GI50 (K562): > 10 µM (inactive) | GI50 (UO-31): > 10 µM (inactive) | GI50 (786-0): > 10 µM (inactive) | GI50 (RPMI-8226): > 10 µM (inactive) | GI50 (SF-268): > 10 µM (inactive) | GI50 (M14): > 10 µM (inactive) | GI50 (NCI-H226): > 10 µM (inactive) | GI50 (OVCAR-3): > 10 µM (inactive) | GI50 (Malme-3M): > 10 µM (inactive) | GI50 (LOX IMVI): > 10 µM (inactive) | GI50 (RXF 393): > 10 µM (inactive) | GI50 (A498): > 10 µM (inactive) | GI50 (HOP-92): > 10 µM (inactive) | GI50 (OVCAR-8): > 10 µM (inactive) | GI50 (T47D): > 10 µM (inactive) | GI50 (NCI-H23): > 10 µM (inactive) | GI50 (NCI/ADR-RES): > 10 µM (inactive) | GI50 (OVCAR-5): > 10 µM (inactive) | GI50 (SF-539): > 10 µM (inactive) | GI50 (HCT-116): > 10 µM (inactive) | GI50 (HL-60): > 10 µM (inactive) | GI50 (SK-MEL-2): > 10 µM (inactive) | GI50 (CAKI-1): > 10 µM (inactive) | GI50 (HOP-62): > 10 µM (inactive) | GI50 (SW-620): > 10 µM (inactive) | GI50 (HCT-15): > 10 µM | GI50 (CCRF-CEM): > 10 µM (inactive) | GI50 (SR): > 10 µM (inactive) | GI50 (A549): > 10 µM (inactive) | GI50 (SF-295): > 10 µM (inactive) | GI50 (SK-MEL-28): > 10 µM (inactive) | GI50 (COLO 205): > 10 µM (inactive) | GI50 (TK-10): > 10 µM (inactive) | GI50 (MCF7): > 10 µM (inactive) | GI50 (MOLT-4): > 10 µM (inactive) | GI50 (SNB-75): > 10 µM (inactive) | GI50 (ACHN): > 10 µM (inactive) | GI50 (U-251): > 10 µM (inactive) | GI50 (PC-3): > 10 µM (inactive) | GI50 (SNB-19): > 10 µM (inactive) | GI50 (SK-MEL-5): > 10 µM (inactive) | GI50 (SN12C): > 10 µM (inactive) | GI50 (IGROV-1): > 10 µM (inactive) | GI50 (KM12): > 10 µM (inactive) | GI50 (MDA-N): > 10 µM (inactive)

COc1cc(OC)cc(Oc2nc3cc(N)cc(N)c3nc2-c2ccccc2)c1
GI50 (DU-145): 4.52 µM (inactive) | GI50 (UO-31): 3.44 µM (inactive) | GI50 (786-0): 2.19 µM (inactive) | GI50 (RPMI-8226): 2.86 µM (inactive) | GI50 (RXF 393): 1.02 µM (active) | GI50 (A498): 1.95 µM (inactive) | GI50 (CAKI-1): 4.19 µM (inactive) | GI50 (TK-10): 1.73 µM (inactive) | GI50 (ACHN): 4.25 µM (inactive) | GI50 (PC-3): 3.85 µM (inactive) | GI50 (SN12C): 4.4 µM (inactive)
